From PubChem BioAssay (NCI)
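These data come from cells grown in 96-well plates and exposed to compound for 48 hours at five concentrations. GI50: concentration for 50% inhibition of growth. TGI denotes the concentration required for complete inhibition of growth.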

Assays:
Experiment in all cases: growth of human tumour cells (NCI), 48 h
[1] = tested on: 786-0 renal
[2] = tested on: A498 renal
[3] = tested on: A549 NSCLC
[4] = tested on: ACHN renal
[5] = tested on: BT-549 breast
[6] = tested on: CAKI-1 renal
[7] = tested on: CCRF-CEM leukemia
[8] = tested on: COLO 205 colon
[9] = tested on: DU-145 prostate
[10] = tested on: EKVX NSCLC
[11] = tested on: HCC-2998 colon
[12] = tested on: HCT-116 colon
[13] = tested on: HCT-15 colon
[14] = tested on: HL-60(TB) leukemia
[15] = tested on: HOP-62 NSCLC
[16] = tested on: HOP-92 NSCLC
[17] = tested on: HS 578T breast
[18] = tested on: HT29 colon
[19] = tested on: IGROV1 ovarian
[20] = tested on: K-562 leukemia
[21] = tested on: KM12 colon
[22] = tested on: LOX IMVI melanoma
[23] = tested on: M14 melanoma
[24] = tested on: MALME-3M melanoma
[25] = tested on: MCF7 breast
[26] = tested on: MDA-MB-231 breast
[27] = tested on: MDA-MB-435
[28] = tested on: MDA-MB-468 breast
[29] = tested on: MOLT-4 leukemia
[30] = tested on: NCI-H226 lung
[31] = tested on: NCI-H23 lung
[32] = tested on: NCI-H460 lung
[33] = tested on: NCI-H522 lung
[34] = tested on: NCI/ADR-RES ovarian
[35] = tested on: OVCAR-3 ovarian
[36] = tested on: OVCAR-4 ovarian
[37] = tested on: OVCAR-5 ovarian
[38] = tested on: OVCAR-8 ovarian
[39] = tested on: PC-3 prostate
[40] = tested on: RPMI-8226 leukemia
[41] = tested on: RXF 393 renal
[42] = tested on: SF-268 CNS
[43] = tested on: SF-295 CNS
[44] = tested on: SF-539 CNS
[45] = tested on: SK-MEL-2 melanoma
[46] = tested on: SK-MEL-28 melanoma
[47] = tested on: SK-MEL-5 melanoma
[48] = tested on: SK-OV-3 ovarian
[49] = tested on: SN12C renal
[50] = tested on: SNB-19 CNS
[51] = tested on: SNB-75 CNS
[52] = tested on: SR leukemia
[53] = tested on: SW-620 colon
[54] = tested on: TK-10 renal
[55] = tested on: U251 CNS
[56] = tested on: UACC-257 melanoma
[57] = tested on: UACC-62 melanoma
[58] = tested on: UO-31 renal

Cn1cc(-c2nc(N)nnc2-c2c[nH]c3ccc(Br)cc23)c2cc(Br)cnc21
GI50 [1]: 422 nM
TGI [1]: 16100 nM
GI50 [2]: 662 nM
TGI [2]: 5320 nM
GI50 [3]: 455 nM
TGI [3]: 29100 nM
GI50 [4]: 748 nM
TGI [4]: 13200 nM
GI50 [5]: 227 nM
TGI [5]: 7720 nM
GI50 [6]: 184 nM
TGI [6]: 18200 nM
GI50 [7]: 279 nM
TGI [7]: > 100000 nM
GI50 [8]: 248 nM
TGI [8]: 762 nM
GI50 [9]: 352 nM
TGI [9]: 12800 nM
GI50 [10]: 881 nM
TGI [10]: 23700 nM
GI50 [11]: 379 nM
TGI [11]: 11400 nM
GI50 [12]: 141 nM
TGI [12]: 3360 nM
GI50 [13]: 177 nM
TGI [13]: 11000 nM
GI50 [14]: 144 nM
TGI [14]: 824 nM
GI50 [15]: 420 nM
TGI [15]: 19500 nM
GI50 [16]: 1270 nM
TGI [16]: 11400 nM
GI50 [17]: 285 nM
TGI [17]: 38000 nM
GI50 [18]: 269 nM
TGI [18]: 1040 nM
GI50 [19]: 398 nM
TGI [19]: 18800 nM
GI50 [20]: 49 nM
TGI [20]: > 35600 nM
GI50 [21]: 146 nM
TGI [21]: 11300 nM
GI50 [22]: 299 nM
TGI [22]: 15800 nM
GI50 [23]: 148 nM
TGI [23]: 13900 nM
GI50 [24]: 135 nM
TGI [24]: 20300 nM
GI50 [25]: 58.3 nM
TGI [25]: 15900 nM
GI50 [26]: 442 nM
TGI [26]: 11700 nM
GI50 [27]: 32 nM
TGI [27]: 120 nM
GI50 [28]: 69 nM
TGI [28]: 1030 nM
GI50 [29]: 341 nM
TGI [29]: 20300 nM
GI50 [30]: 582 nM
TGI [30]: 8660 nM
GI50 [31]: 373 nM
TGI [31]: 14900 nM
GI50 [32]: 349 nM
TGI [32]: 11200 nM
GI50 [33]: 21.2 nM
TGI [33]: 61.9 nM
GI50 [34]: 432 nM
TGI [34]: 7080 nM
GI50 [35]: 64.9 nM
TGI [35]: 2510 nM
GI50 [36]: 978 nM
TGI [36]: 20200 nM
GI50 [37]: 422 nM
TGI [37]: 15600 nM
GI50 [38]: 450 nM
TGI [38]: 9020 nM
GI50 [39]: 130 nM
TGI [39]: 30100 nM
GI50 [40]: 422 nM
TGI [40]: > 100000 nM
GI50 [41]: 167 nM
TGI [41]: 3840 nM
GI50 [42]: 1620 nM
TGI [42]: 22000 nM
GI50 [43]: 75 nM
TGI [43]: 12800 nM
GI50 [44]: 154 nM
TGI [44]: 532 nM
GI50 [45]: 194 nM
TGI [45]: 14800 nM
GI50 [46]: 324 nM
TGI [46]: 17800 nM
GI50 [47]: 114 nM
TGI [47]: 3910 nM
GI50 [48]: 432 nM
TGI [48]: 20200 nM
GI50 [49]: 423 nM
TGI [49]: 14500 nM
GI50 [50]: 454 nM
TGI [50]: 16500 nM
GI50 [51]: 192 nM
TGI [51]: 2910 nM
GI50 [52]: 43 nM
TGI [52]: > 52900 nM
GI50 [53]: 217 nM
TGI [53]: 18400 nM
GI50 [54]: 12600 nM
TGI [54]: 50400 nM
GI50 [55]: 349 nM
TGI [55]: 13300 nM
GI50 [56]: 11000 nM
TGI [56]: 23500 nM
GI50 [57]: 47.3 nM
TGI [57]: 16400 nM
GI50 [58]: 349 nM
TGI [58]: 16500 nM
